Experiments:
[1] = system: reserpine-induced hypothermia mice; test: Anti-reserpine action after oral administration of test compounds; type: in vivo, mice (ddY, male); conditions: 10 µmol/kg in saline, calculated from AUC of rectal temperature over 420 min versus vehicle, reserpine 3 mg/kg s.c. 18 hours before
Experimental: Reserpine-induced hypothemia mice (ddY, male, body weight 30 to 40 g) were prepared by the subcutaneous administration of reserpine in back side of the […] (3 mg/kg) at 18 hours before test compounds administration. Mice with their body temperature about 25 °C were used in the experiment. Test compounds were solubilized in saline and 0.2 ml (10 µmol/kg) of them were administered by sonde for oral administration. After the administration, rectal temperature was measured at 30, 60, 120, 180, 240, 300, […]. The area under curve (AUC) of the body temperature-time profile was calculated by the general trapezoidal method. In the control experiment, vehicle (saline) was administered to mice and the rectal temperature was measured by the same protocol.
Effective dose: Dose which can increase the average of body temperatures at 1 °C for 420 min in reserpine-induced hypothermia mice.

[2] = system: reserpine-induced hypothermia mice; test: Anti-reserpine action after intravenous and intracerebroventricular administration of test compounds; type: in vivo, mice (ddY, male); conditions: calculated from AUC of rectal temperature over 180 min versus vehicle; for Dose which can increase the average of body temperatures at 1 °C for 180 min in reserpine-induced hypothermia mice, administered intracerebroventricularly: intracerebroventricular, 0.21 µmol/kg; for Dose which can increase the average of body temperatures at 1 °C for 180 min in reserpine-induced hypothermia mice, administered intravenously: intravenous, 1 µmol/kg
Experimental: Recerpine-induced hypothermia mice (ddY, male) were prepared by the administration of reserpine (3 mg/kg) at 18 hours before test compounds administration. Mice with their body temperature about 25 °C were used in the experiment. Test compounds were solubilized in saline and 0.1 ml (1 µmol/kg) of them were administered intravenously and 0.005 ml (0.21 µmol/kg) of them were administered intracerebroventricularly, respectively. After the administration, rectal temperature was measured at 30, 60, 120, and 180 min. The area under curve (AUC) of the body temperature-time profile was calculated by the general trapezoidal method. In the control experiment, vehicle (saline) was administered to mice intravenously or intracerebroventricularly and the rectal temperature was measured by the same protocol.
Effective dose: Dose which can increase the average of body temperatures at 1°C for 180 min in reserpine-induced hypothermia mice.

[3] = Change of blood glucose levels after administration of the test compounds to rats; type: in vivo, male Wistar rats; conditions: for blood glucose level as a percentage compared to the baseline level: 50 µmol/kg intravenously, vehicle-treated rats = 100 %
Experimental: Fasted male Wistar rats (250-350 g) were anaesthesized with urethane. Test compounds were solubilized in saline and administered intravenously (50 µmol/kg). Body temperature of rats were kept at 37 °C by a hot blanket. After the administration, blood was collected from jugular vein at 5, 15, 30, 60, 120, 180, 240, 300, 360, 420, and 480 min and blood glucose levels were measured (BM Test blood sugar. Wako Chemical Indus.). The blood glucose levels at each sampling time in vehicle (saline)-treated rats were defined as the baseline level (100 %). […]

[4] = time 0 min, fasted urethane-anaesthetized rats

Compound	Dose which can increase the average of body temperatures at 1 °C for 420 min in reserpine-induced hypothermia mice (by oral) [1] [µmol/kg]	Dose which can increase the average of body temperatures at 1 °C for 180 min in reserpine-induced hypothermia mice, administered intracerebroventricularly [2] [µmol/kg]	Dose which can increase the average of body temperatures at 1 °C for 180 min in reserpine-induced hypothermia mice, administered intravenously [2] [µmol/kg]	acute rise of the blood glucose level and acute fall by the rebound ([3]; result in words, general description)	blood glucose level as a percentage compared to the baseline level [3, 4] [%]	blood glucose level as a percentage compared to the baseline level ([3]; time 5 min) [%]	blood glucose level as a percentage compared to the baseline level ([3]; time 15 min) [%]	blood glucose level as a percentage compared to the baseline level ([3]; time 30 min) [%]	blood glucose level as a percentage compared to the baseline level ([3]; time 60 min) [%]	blood glucose level as a percentage compared to the baseline level ([3]; time 120 min) [%]	blood glucose level as a percentage compared to the baseline level ([3]; time 180 min) [%]	blood glucose level as a percentage compared to the baseline level ([3]; time 240 min) [%]	blood glucose level as a percentage compared to the baseline level ([3]; time 300 min) [%]	blood glucose level as a percentage compared to the baseline level ([3]; time 360 min) [%]	blood glucose level as a percentage compared to the baseline level ([3]; time 420 min) [%]	blood glucose level as a percentage compared to the baseline level ([3]; time 480 min) [%]
NC(=O)[C@@H]1CCCN1C(=O)[C@H](Cc1cnc[nH]1)NC(=O)[C@@H]1CCC(=O)N1 [TRH, L-pyroglutamyl-L-histidyl-L-prolineamide]	42.68	0.033	9.84	acutely raises up the blood glucose level	116.3	114.6	123.3	137.9	153.5	139.1	119.1	112.6	113.2	103.5	102.6	97.1
CC(C)OC(=O)CNC(=O)[C@@H]1CCCN1C(=O)[C@H](Cc1cscn1)NC(=O)[C@H]1NC(=O)O[C@H]1C [I-30]	2.59	–	–	–	–	–	–	–	–	–	–	–	–	–	–	–
C[C@H]1OC(=O)N[C@H]1C(=O)N[C@@H](Cc1cscn1)C(=O)N1CCC[C@H]1C(N)=O (mixture of isomers) [I-10, cis-L-5-methyl-2-oxo-oxazolidine-4-yl-carbonyl-3-(4-thiazolyl)-L-alanyl-L-prolineamide]	1.14	0.025	0.11	–	107.7	119.9	104.3	109.1	112.1	126.5	105.3	110.9	104.0	100.4	102.6	111.8
C[C@@H]1OC(=O)N[C@@H]1C(=O)N[C@@H](Cc1cscn1)C(=O)N1CSC[C@H]1C(N)=O [I-11]	2.03	–	–	–	–	–	–	–	–	–	–	–	–	–	–	–
C[C@H]1OC(=O)N(CN2CCOCC2)[C@H]1C(=O)N[C@@H](Cc1cscn1)C(=O)N1CCC[C@H]1C(N)=O (mixture of isomers) [I-40, cis-L-3-morpholinomethyl-5-methyl-2-oxo-oxazolidine-4-yl-carbonyl-3-(4-thiazolyl)-L-alanyl-L-prolineamide]	1.65	–	–	–	–	–	–	–	–	–	–	–	–	–	–	–
CN1C(=O)C[C@@H](C(=O)N[C@@H](Cc2cscn2)C(=O)N2CSC[C@H]2C(N)=O)NC1=O [I-5]	1.22	–	–	–	–	–	–	–	–	–	–	–	–	–	–	–

From EP0933379B1, “NOVEL PEPTIDE DERIVATIVES HAVING THIAZOLYL-ALANINE RESIDUE” (SHIONOGI & CO., LTD., priority 1996, dated 1998)
